Values joined by “and” are separate entries in the source; they are usually repeats but may differ in a detail not shown here. Identical values can stand only once. Toxic doses and inconclusive results are not listed. Rule as the data show it: active = T/C of 150% or more; inactive = T/C below 125%.
Tested on: L1210 leukemia ip in BDF1 mice, survival T/C
Assay: NCI In Vivo Anticancer Drug Screen. Data for tumor model L1210 Leukemia (intraperitoneal) in B6D2F1 (BDF1) mice
Conditions: endpoint: mean survival time, higher = longer survival
Summary of the method: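 Mice bearing the transplanted tumor received compound or vehicle. Survival of the treated group was divided by that of the vehicle-treated control group to give the ratio.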

[1] = dose: 100.0 mg/kg/injection, schedule: Q04DX003 (ip), vehicle: Klucel (hydroxypropylcellulose) (HPC)
[2] = dose: 200.0 mg/kg/injection, schedule: Q04DX003 (ip), vehicle: Klucel (hydroxypropylcellulose) (HPC)
[3] = dose: 400.0 mg/kg/injection, schedule: Q04DX003 (ip), vehicle: Klucel (hydroxypropylcellulose) (HPC)
[4] = dose: 100.0 mg/kg/injection, schedule: Q04DX003 (ip), vehicle: saline
[5] = dose: 200.0 mg/kg/injection, schedule: Q04DX003 (ip), vehicle: saline
[6] = dose: 400.0 mg/kg/injection, schedule: Q04DX003 (ip), vehicle: saline
[7] = dose: 100.0 mg/kg/injection, schedule: Q01DX009 (ip), vehicle: saline with Tween-80
[8] = dose: 200.0 mg/kg/injection, schedule: Q01DX009 (ip), vehicle: saline with Tween-80
[9] = dose: 400.0 mg/kg/injection, schedule: Q01DX009 (ip), vehicle: saline with Tween-80
[10] = dose: 100.0 mg/kg/injection, schedule: Q01DX001 (ip), vehicle: carboxymethylcellulose (CMC)
[11] = dose: 200.0 mg/kg/injection, schedule: Q01DX001 (ip), vehicle: carboxymethylcellulose (CMC)
[12] = dose: 400.0 mg/kg/injection, schedule: Q01DX001 (ip), vehicle: carboxymethylcellulose (CMC)
[13] = dose: 100.0 mg/kg/injection, schedule: Q01DX009 (ip), vehicle: Klucel (hydroxypropylcellulose) (HPC)
[14] = dose: 200.0 mg/kg/injection, schedule: Q01DX009 (ip), vehicle: Klucel (hydroxypropylcellulose) (HPC)
[15] = dose: 400.0 mg/kg/injection, schedule: Q01DX009 (ip), vehicle: Klucel (hydroxypropylcellulose) (HPC)
[16] = dose: 75.0 mg/kg/injection, schedule: Q01DX001 (ip), vehicle: saline
[17] = dose: 150.0 mg/kg/injection, schedule: Q01DX001 (ip), vehicle: saline
[18] = dose: 150.0 mg/kg/injection, schedule: Q01DX009 (ip), vehicle: Klucel (hydroxypropylcellulose) (HPC)
[19] = dose: 100.0 mg/kg/injection, schedule: Q01DX001 (ip), vehicle: saline

Measured: T/C

C=CCOc1ccccc1C(C)=O
inactive: dose: 100.0 mg/kg/injection, schedule: Q04DX003 (ip), vehicle: saline with Tween-80 97 % of control | dose: 200.0 mg/kg/injection, schedule: Q04DX003 (ip), vehicle: saline with Tween-80 97 % of control | dose: 400.0 mg/kg/injection, schedule: Q04DX003 (ip), vehicle: saline with Tween-80 89 % of control

CCOC(=O)CCC(NC(=O)c1c(Cl)cc(N(C)S(=O)(=O)c2ccc(C)cc2)cc1Cl)C(=O)OCC (stereo not drawn)
inactive: [1] 105 % of control | [2] 97 % of control | [3] 97 % of control

C#[C][Sn]([CH2]CCC)([CH2]CCC)[CH2]CCC
inactive: dose: 0.39 mg/kg/injection, schedule: Q01DX009 (ip), vehicle: saline with Tween-80 109 % of control | dose: 0.78 mg/kg/injection, schedule: Q01DX009 (ip), vehicle: saline with Tween-80 94 % of control | dose: 1.56 mg/kg/injection, schedule: Q01DX009 (ip), vehicle: saline with Tween-80 95 % of control and 98 % of control

CC12CCC(C(N)C1=O)C2(C)C (stereo not drawn)
inactive: dose: 100.0 mg/kg/injection, schedule: Q01DX009 (ip), vehicle: saline 103 % of control | [4] 98 % of control | dose: 200.0 mg/kg/injection, schedule: Q01DX009 (ip), vehicle: saline 105 % of control | [5] 98 % of control | dose: 400.0 mg/kg/injection, schedule: Q01DX009 (ip), vehicle: saline 94 % of control | [6] 97 % of control

OCCNc1ccc(C2=NCCO2)cc1
inactive: [7] 106 % of control | [8] 97 % of control | [9] 91 % of control

Cc1cc(N(CCCl)CCCl)ccc1CN1CCCN(Cc2ccc(N(CCCl)CCCl)cc2C)C1c1ccccc1O
inactive: dose: 50.0 mg/kg/injection, schedule: Q01DX001 (ip), vehicle: carboxymethylcellulose (CMC) 106 % of control | [10] 103 % of control | [1] 117 % of control | [11] 103 % of control | [2] 110 % of control | [12] 103 % of control | [3] 122 % of control

CCOC(=O)OC1C(OC)OC2COC(c3ccccc3)OC2C1OC(=O)OCC (stereo not drawn)
inactive: dose: 100.0 mg/kg/injection, schedule: Q04DX002 (ip), vehicle: other 103 % of control | dose: 200.0 mg/kg/injection, schedule: Q04DX002 (ip), vehicle: other 97 % of control | dose: 400.0 mg/kg/injection, schedule: Q04DX002 (ip), vehicle: other 100 % of control

CC(C)(C)OC(=O)C(CSSCC(NC(=O)OCc1ccccc1)C(=O)OC(C)(C)C)NC(=O)OCc1ccccc1 (stereo not drawn)
inactive: [13] 98 % of control | [1] 98 % of control | [14] 107 % of control | [2] 96 % of control | [15] 107 % of control | [3] 96 % of control

CCOC(=O)c1cc(C(=O)OCC)c(=O)oc1OCC
inactive: dose: 18.75 mg/kg/injection, schedule: Q01DX009 (ip), vehicle: acetone 105 % of control | dose: 37.5 mg/kg/injection, schedule: Q01DX009 (ip), vehicle: acetone 87 % of control | dose: 37.5 mg/kg/injection, schedule: Q04DX003 (ip), vehicle: saline 88 % of control | [16] 110 % of control | dose: 75.0 mg/kg/injection, schedule: Q01DX009 (ip), vehicle: acetone 87 % of control | dose: 75.0 mg/kg/injection, schedule: Q04DX003 (ip), vehicle: saline 90 % of control | [17] 97 % of control | dose: 150.0 mg/kg/injection, schedule: Q04DX003 (ip), vehicle: saline 93 % of control

COc1ccc2ccccc2c1C1NC(=O)c2ccccc2N1 (stereo not drawn)
inactive: dose: 50.0 mg/kg/injection, schedule: Q01DX009 (ip), vehicle: Klucel (hydroxypropylcellulose) (HPC) 97 % of control | [13] 97 % of control | [18] 92 % of control

O=CN/N=C/c1ccc(Cl)cc1Cl
inactive: [16] 95 % of control | [17] 104 % of control

CCSC(SCC)C(O)C(O)C(O)C(O)CO (stereo not drawn)
inactive: [13] 101 % of control and 98 % of control | [1] 101 % of control and 92 % of control | [4] 101 % of control | [14] 106 % of control and 97 % of control | [2] 101 % of control and 95 % of control | [5] 93 % of control | [15] 114 % of control and 97 % of control | [3] 101 % of control and 92 % of control | [6] 92 % of control

O=S(=O)(CS(=O)(=O)c1ccccc1)c1ccccc1
inactive: dose: 75.0 mg/kg/injection, schedule: Q01DX009 (ip), vehicle: Klucel (hydroxypropylcellulose) (HPC) 102 % of control | [18] 98 % of control | dose: 300.0 mg/kg/injection, schedule: Q01DX009 (ip), vehicle: Klucel (hydroxypropylcellulose) (HPC) 95 % of control

NC(=O)c1[nH]cnc1/N=N/N(CCO)Cc1ccccc1
inactive: dose: 50.0 mg/kg/injection, schedule: Q01DX001 (ip), vehicle: water 98 % of control | dose: 50.0 mg/kg/injection, schedule: Q04DX003 (ip), vehicle: water 105 % of control | dose: 100.0 mg/kg/injection, schedule: Q01DX001 (ip), vehicle: water 96 % of control | [7] 98 % of control | dose: 100.0 mg/kg/injection, schedule: Q04DX003 (ip), vehicle: water 105 % of control | dose: 200.0 mg/kg/injection, schedule: Q01DX001 (ip), vehicle: water 98 % of control | [8] 102 % of control | dose: 200.0 mg/kg/injection, schedule: Q04DX003 (ip), vehicle: water 101 % of control | dose: 400.0 mg/kg/injection, schedule: Q01DX001 (ip), vehicle: water 101 % of control | [9] 95 % of control | dose: 400.0 mg/kg/injection, schedule: Q04DX003 (ip), vehicle: water 97 % of control

CC(=O)NC1CCCC(C)N1 (stereo not drawn)
inactive: dose: 50.0 mg/kg/injection, schedule: Q04DX003 (ip), vehicle: saline 98 % of control | [19] 110 % of control | [4] 104 % of control | dose: 200.0 mg/kg/injection, schedule: Q01DX001 (ip), vehicle: saline 100 % of control | [5] 96 % of control

Cc1cc(=O)[nH]c(NCCCC(N)C(=O)O)n1 (stereo not drawn)
inactive: dose: 100.0 mg/kg/injection, schedule: Q04DX002 (ip), vehicle: saline 104 % of control | dose: 200.0 mg/kg/injection, schedule: Q04DX002 (ip), vehicle: saline 101 % of control | dose: 400.0 mg/kg/injection, schedule: Q04DX002 (ip), vehicle: saline 96 % of control

[CeH3]
inactive: dose: 100.0 mg/kg/injection, schedule: Q04DX003 (sc), vehicle: olive oil, sesame oil, peanut oil 98 % of control | dose: 200.0 mg/kg/injection, schedule: Q04DX003 (sc), vehicle: olive oil, sesame oil, peanut oil 108 % of control | dose: 400.0 mg/kg/injection, schedule: Q04DX003 (sc), vehicle: olive oil, sesame oil, peanut oil 91 % of control

CC(NNC(c1ccccc1)(c1ccccc1)c1ccccc1)c1ccccc1I (stereo not drawn)
inactive: dose: 100.0 mg/kg/injection, schedule: Q04DX002 (ip), vehicle: saline with Tween-80 93 % of control | dose: 200.0 mg/kg/injection, schedule: Q04DX002 (ip), vehicle: saline with Tween-80 95 % of control | dose: 400.0 mg/kg/injection, schedule: Q04DX002 (ip), vehicle: saline with Tween-80 97 % of control

CC(=O)Nc1ccc2c(c1)C(S)c1ccccc1-2 (stereo not drawn)
inactive: [10] 112 % of control | [11] 114 % of control | [12] 101 % of control

O=C(CCC(=O)c1cccc([N+](=O)[O-])c1)NNc1ccc([N+](=O)[O-])cc1[N+](=O)[O-]
inactive: [7] 95 % of control | [8] 105 % of control | [9] 92 % of control

Nc1nc(Nc2ccc(Cl)c(Cl)c2)cc(=O)[nH]1
inactive: dose: 200.0 mg/kg/injection, schedule: Q01DX Z (ip), vehicle: methylcellulose (MC) 86 % of control

CCC(C)(CC=C(C)C)c1ccncc1 (stereo not drawn)
inactive: [19] 98 % of control

Cc1cccc(S(=O)(=O)CS(=O)(=O)c2cccc(C)c2)c1
inactive: dose: 75.0 mg/kg/injection, schedule: Q01DX001 (ip), vehicle: carboxymethylcellulose (CMC) 102 % of control | dose: 150.0 mg/kg/injection, schedule: Q01DX001 (ip), vehicle: carboxymethylcellulose (CMC) 96 % of control | dose: 300.0 mg/kg/injection, schedule: Q01DX001 (ip), vehicle: carboxymethylcellulose (CMC) 91 % of control

Cc1ccc(S(=O)(=O)OC2CCC(OS(=O)(=O)c3ccc(C)cc3)C3CCCCC23)cc1 (stereo not drawn)
inactive: [10] 88 % of control | [11] 90 % of control | [12] 88 % of control

Source: PubChem BioAssay AID248 (DTP/NCI, 2004)
